Measured values reported in ChEMBL document CHEMBL2040830, “Makomotindoline from Makomotake, Zizania latifolia infected with Ustilago esculenta” (2012).
Active and inactive are the calls of the source. No cut-off for these calls is given here.

Experiments:
C6 [1] = assay: Cytotoxicity against rat C6 cells assessed as cell death after 24 to 48 hrs by MTT assay; type: functional, cell-based
C6 [2] = assay: Growth stimulation of rat C6 cells at 100 uM after 48 hrs by MTT assay relative to control; type: functional
C6 [3] = assay: Growth stimulation of rat C6 cells at 100 uM after 24 hrs by MTT assay relative to control; type: functional
C6 [4] = assay: Cytotoxicity against rat C6 cells assessed as decrease in cell number at 100 uM after 48 hrs by MTT assay; type: functional; set-up: scale not given: the % may be the effect or the level left
C6 [5] = assay: Cytotoxicity against rat C6 cells assessed as cell death at 10 to 100 uM after 48 hrs by MTT assay; type: functional, cell-based
C6 [6] = assay: Cytotoxicity against rat C6 cells assessed as decrease in cell number at 10 uM after 24 hrs by MTT assay; type: functional; set-up: scale not given: the % may be the effect or the level left
C6 [7] = assay: Cytotoxicity against rat C6 cells assessed as decrease in cell number at 100 uM after 24 hrs by MTT assay; type: functional; set-up: scale not given: the % may be the effect or the level left

OC[C@H]1O[C@@H](N2c3ccccc3[C@]3(O)CCO[C@H]23)[C@H](O)[C@@H](O)[C@@H]1O
Activity (C6 [1]): inactive

O[C@@]12CCO[C@@H]1Nc1ccccc12
Activity (C6 [2]): 114.2%
Activity (C6 [3]): 112%

OC[C@@H]1O[C@H](N2c3ccccc3[C@]3(O)CCO[C@H]23)[C@@H](O)[C@H](O)[C@H]1O
Activity (C6 [4]): 87.9%
Activity (C6 [5]): inactive
Activity (C6 [6]): 92.4%
Activity (C6 [7]): 83.9%
